Among the data in paper PMC4846659, “Estrogen Receptor-Targeted Contrast Agents for Molecular Magnetic Resonance Imaging of Breast Cancer Hormonal Status” (Frontiers in Oncology, 2016) are Ki values, retold here.

For this experiment, the target named is ERα (estrogen receptor α) (Homo sapiens, UniProt P03372). Nature of the experiment: competitive radioligand binding assay with tritiated […]β-estradiol on recombinant hERα. On the set-up: gene ESR1; recombinant hERα.
Chain of ERα (estrogen receptor α) (P03372 whole entry): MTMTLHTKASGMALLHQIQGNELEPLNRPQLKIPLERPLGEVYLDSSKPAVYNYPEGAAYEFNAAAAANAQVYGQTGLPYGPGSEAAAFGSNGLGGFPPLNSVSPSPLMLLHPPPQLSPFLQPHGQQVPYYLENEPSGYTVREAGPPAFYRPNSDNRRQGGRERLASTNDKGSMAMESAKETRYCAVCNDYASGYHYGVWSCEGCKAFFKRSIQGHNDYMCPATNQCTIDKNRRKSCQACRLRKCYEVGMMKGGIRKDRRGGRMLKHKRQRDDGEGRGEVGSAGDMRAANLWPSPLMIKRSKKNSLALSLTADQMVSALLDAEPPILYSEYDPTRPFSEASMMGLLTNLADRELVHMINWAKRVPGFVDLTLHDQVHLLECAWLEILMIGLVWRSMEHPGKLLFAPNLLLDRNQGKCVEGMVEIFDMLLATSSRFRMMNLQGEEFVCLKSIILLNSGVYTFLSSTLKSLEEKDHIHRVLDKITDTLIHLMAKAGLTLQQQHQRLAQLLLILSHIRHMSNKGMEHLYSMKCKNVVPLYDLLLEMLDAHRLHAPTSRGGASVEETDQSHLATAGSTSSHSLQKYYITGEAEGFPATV

What is called Ki is the dissociation constant of the complex between target and ligand, obtained from inhibition or displacement. With `C[C@]12CC[C@@H]3c4ccc(O)cc4CC[C@H]3[C@@H]1CC[C@@]2(O)C#Cc1cc(CN(CC(=O)[O-])CC(=O)[O-])nc(CN(CC(=O)[O-])CC(=O)[O-])c1.[Gd+3].[Na+]` [EPTA-Gd], the inhibition constant (Ki) is 970 ± 70 nM.

As to `CC/C(=C(\c1ccc(C#Cc2cc(CN(CC(=O)[O-])CC(=O)[O-])nc(CN(CC(=O)[O-])CC(=O)[O-])c2)cc1)c1ccc(OCCN(C)C)cc1)c1ccccc1.[Gd+3].[Na+]` [TPTA-Gd], the Ki is 130 ± 6 nM.
